Consider 15 molecules from patent US10703748B2, “Diazanaphthalen-3-yl carboxamides and preparation and use thereof” (Samumed, LLC, priority 2017, dated 2020).

SMILES strings stand for the structures. Where only a bound is given, the exact number is not on record here.

One assay has as its target DYRK1A kinase (Homo sapiens, UniProt Q13627). Nature of the assay: DYRK1A kinase activity (Ser/Thr 18 peptide Z-lyte FRET assay).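 Also: kinase activity read as coumarin/fluorescein emission ratio after development step, with unphosphorylated and phosphorylated peptide forms setting 0% and 100% controls, values from dose-response curves.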 It is filed as biochemical. The note with it: recombinant DYRK1A, 30 μM ATP, one hour at room temperature.
The target of another assay is GSK3β kinase (Homo sapiens, UniProt P49841). Nature of the assay: GSK3β kinase activity (Ser/Thr 09 peptide Z-lyte FRET assay). It is filed as biochemical. The note with it: recombinant kinase, 46 μM ATP, one hour at room temperature; read-out: EC50.
For assay [1], the system named is Tau phosphorylation at Ser396 (pSer396). Nature of the assay: Tau phosphorylation at Ser396 (pSer396) in SH-SY5Y cells, ELISA / western blot.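 Also: decrease in pSer396 Tau measured in lysates of treated cells by colorimetric ELISA or chemiluminescent western blot, same pSer396 antibody for both.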 It counts as cell-based, human. Particulars: Homo sapiens; SH-SY5Y cells, overnight (16-18 h); read-out: pSer396 Tau EC50.
Method: Two days before treatment, cells were seeded onto 96 well plates at 5×10^4 cells/well.
The above synthesized compounds were screened using the cell assay procedure to assess decrease Tau phosphorylation at Ser396 (pSer396) described below.
Cells were lysed with RIPA buffer complemented with phosphatase and protease inhibitors then lysates were spun down at 12,000 g for 10 min to remove any cellular debris.
The test system of assay [2] is secreted cytokines TNFα, IL-6 and KC-GRO. Put plainly: Secreted cytokines in Lipopolysaccharide-stimulated BV-2 cells (Table 9 does not say which cytokine). It counts as cell-based, mouse. Particulars: Mus musculus, BV-2, 5 h; read-out: EC50.
The subject of assay [3] is SW480 colon carcinoma cells. Nature of the assay: Cell viability assay (CellTiter-Glo). The note with it: Homo sapiens; for EC50: SW480, 96 h; for inhibition at 10 µM: SW480, read-out: percent inhibition at 10 μM.
In assay [4] the test system is Wnt-responsive Sp5-Luc reporter in SW480 colon carcinoma cells. Put plainly: Screening assay for Wnt activity (Sp5-Luc reporter gene assay). Particulars: Homo sapiens; for EC50: SW480; for inhibition at 10 µM: SW480, read-out: percent inhibition at 10 μM.
The next assay deals with IL-6. Put plainly: IL-6 inhibition in LPS-stimulated human peripheral blood mononuclear cells (HTRF). Particulars: Homo sapiens, PBMC; for EC50: 22 h; for inhibition at 10 µM: read-out: percentage in parentheses after EC50 >10.
For assay [5], the system named is α-smooth muscle actin (aSMA) positive LL29 cells. Nature of the assay: Inhibition of the fibrotic process: αSMA staining in TGF-β1 treated LL29 fibroblasts from IPF patients. Particulars: Homo sapiens, Fibroblast; for EC50: 96 h; for inhibition at 10 µM: read-out: percentage in parentheses after EC50 >10.

GSK3β kinase, sequence (P49841 whole entry): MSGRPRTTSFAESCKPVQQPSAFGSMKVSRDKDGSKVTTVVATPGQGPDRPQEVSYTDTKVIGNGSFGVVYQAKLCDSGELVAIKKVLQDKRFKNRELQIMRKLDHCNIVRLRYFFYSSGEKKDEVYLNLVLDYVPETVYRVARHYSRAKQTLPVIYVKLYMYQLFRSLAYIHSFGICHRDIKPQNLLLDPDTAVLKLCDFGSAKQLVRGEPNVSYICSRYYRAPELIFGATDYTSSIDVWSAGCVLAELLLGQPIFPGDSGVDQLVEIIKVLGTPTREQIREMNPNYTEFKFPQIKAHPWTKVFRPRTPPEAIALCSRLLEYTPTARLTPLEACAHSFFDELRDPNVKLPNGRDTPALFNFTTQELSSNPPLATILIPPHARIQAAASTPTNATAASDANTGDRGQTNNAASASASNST

In the case of `CC(C)CN1CCC(CC(=O)Nc2cc3nc(-c4cnn(C)c4)ccc3cn2)C1` (centres unmarked) [Compound 122, 2-(1-Isobutylpyrrolidin-3-yl)-N-(2-(1-methyl-1H-pyrazol-4-yl)-1,6-naphthyridin-7-yl)acetamide], the EC50 at DYRK1A kinase was 16 nM; on GSK3β kinase, 70 nM; in assay [1], 481 nM; in assay [2] it was 590 nM; in assay [3] it was 3110 nM; in assay [4], 2540 nM. Besides, the EC50 in the assay with IL-6 came out at 3170 nM; in assay [5] it was 4020 nM.

Take `Cn1cc(-c2ccc3cnc(NC(=O)CCc4ccccc4)cc3n2)cn1` [Compound 194, N-(2-(1-Methyl-1H-pyrazol-4-yl)-1,6-naphthyridin-7-yl)-3-phenylpropanamide]: the EC50 on DYRK1A kinase came out at 23 nM; at GSK3β kinase, 17 nM; in assay [1], 3000 nM; in assay [2] it was 819 nM; in assay [3], 7620 nM; in assay [4], 596 nM. Also, the EC50 in the assay with IL-6 is 8940 nM; in assay [5], 935 nM.

Take `Cc1ncc(C(=O)Nc2cc3nc(-c4cnc(C)n4C)ccc3cn2)s1` [Compound 447, N-(2-(1,2-Dimethyl-1H-imidazol-5-yl)-1,6-naphthyridin-7-yl)-2-methylthiazole-5-carboxamide]: the EC50 came to 1 nM at DYRK1A kinase; 48 nM on GSK3β kinase; 562 nM in assay [1]; 83 nM in assay [2]; 165 nM in assay [3]; 107 nM in assay [4]. Moreover, the EC50 was 4250 nM with IL-6 and 517 nM in assay [5].

Turning to `Cn1cncc1-c1ccc2cnc(NC(=O)c3cccc(CN4CCCC4)c3)cc2n1` [Compound 450, N-(2-(1-Methyl-1H-imidazol-5-yl)-1,6-naphthyridin-7-yl)-3-(pyrrolidin-1-ylmethyl)benzamide], the EC50 on DYRK1A kinase turned out to be 1 nM; on GSK3β kinase it was 350 nM; in assay [1], 3760 nM; in assay [2] it was 3000 nM; in assay [3], 409 nM; in assay [4], 279 nM. Also, the EC50 in the assay with IL-6 was 3510 nM; in assay [5], 517 nM.

For `Cn1cncc1-c1ccc2cnc(NC(=O)c3ccc4c(c3)CNC4)cc2n1` [Compound 477, N-(2-(1-Methyl-1H-imidazol-5-yl)-1,6-naphthyridin-7-yl)isoindoline-5-carboxamide], the EC50 amounted to 1 nM on DYRK1A kinase; 84 nM at GSK3β kinase; 10000 nM in assay [1]; 4800 nM in assay [2]; 1690 nM in assay [3]; 962 nM in assay [4]. Further, the EC50 stood at 9830 nM in the assay with IL-6 and 632 nM in assay [5].

Regarding `CC(C)Oc1ccc(C(=O)Nc2cc3nc(-c4cnc5n4CCNC5)ccc3cn2)cc1` [Compound 523, 4-Isopropoxy-N-(2-(5,6,7,8-tetrahydroimidazo[1,2-a]pyrazin-3-yl)-1,6-naphthyridin-7-yl)benzamide], the EC50 at DYRK1A kinase came to 4 nM; at GSK3β kinase it was 362 nM; in assay [1], 3940 nM; in assay [2] it was 799 nM; in assay [3], 814 nM; in assay [4] it was 530 nM. Further, the EC50 in the assay on IL-6 is above 10000 nM; in assay [5], 1630 nM. Moreover, in the assay with IL-6, the inhibition at 10 µM worked out at 3.7%.

For the molecule `Cc1ncc(-c2ccc3cnc(NC(=O)[C@H]4C[C@H](N5CCOCC5)C4)cc3n2)o1` [Compound 556, trans-N-(2-(2-Methyloxazol-5-yl)-1,6-naphthyridin-7-yl)-3-morpholinocyclobutane-1-carboxamide], the EC50 at DYRK1A kinase is 54 nM; at GSK3β kinase, 86 nM; in assay [1], 487 nM; in assay [2], 2200 nM; in assay [3] it was above 10000 nM; in assay [4] it was above 10000 nM. The EC50 (with IL-6; in assay [5]) was above 10000 nM throughout. The inhibition at 10 µM in assay [3] is 29.4%; in assay [4] it was 41.3%; in the assay on IL-6, 4.9%; in assay [5], 27.6%.

For `Cc1cn2c(n1)CN(C(=O)Nc1cc3nc(-c4cnc(C)o4)ccc3cn1)CC2` [Compound 585, 2-Methyl-N-(2-(2-methyloxazol-5-yl)-1,6-naphthyridin-7-yl)-5,6-dihydroimidazo[1,2-a]pyrazine-7(8H)-carboxamide], the EC50 at DYRK1A kinase came out at 9 nM; on GSK3β kinase, 109 nM; in assay [1] it was 374 nM; in assay [2], 257 nM; in assay [3] it was 2690 nM; in assay [4], 2080 nM. Also, the figures for the EC50 (in the assay with IL-6; in assay [5]) were above 10000 nM and 2510 nM, respectively. The inhibition at 10 µM with IL-6 came to 9.4%.

`O=C(Nc1cc2nc(-c3cncs3)ccc2cn1)[C@H]1CC[C@H](CN2CC(F)C2)CC1` [Compound 613, trans-4-((3-Fluoroazetidin-1-yl)methyl)-N-(2-(thiazol-5-yl)-1,6-naphthyridin-7-yl)cyclohexane-1-carboxamide]: the EC50 is 3 nM on DYRK1A kinase; 219 nM on GSK3β kinase; 157 nM in assay [1]; 106 nM in assay [2]; 3600 nM in assay [3]; 8810 nM in assay [4]. Also, the EC50 in the assay on IL-6 came out at 1100 nM; in assay [5], 650 nM.

As to `Cc1ncc(-c2ccc3cnc(NC(=O)N4CCOCC4)cc3n2)s1` [Compound 634, N-(2-(2-Methylthiazol-5-yl)-1,6-naphthyridin-7-yl)morpholine-4-carboxamide], the EC50 was 29 nM at DYRK1A kinase; 1150 nM on GSK3β kinase; 7900 nM in assay [1]; 542 nM in assay [2]; above 10000 nM in assay [3]; 8610 nM in assay [4]. Further, the results for the EC50 (in the assay with IL-6; in assay [5]) were above 10000 nM and 2130 nM, respectively. Also, the inhibition at 10 µM in assay [3] amounted to 41.2%; with IL-6, 13%.

Regarding `Cc1ncc(-c2ccc3cnc(NC(=O)C4CCN(C)CC4)cc3n2)s1` [Compound 640, 1-Methyl-N-(2-(2-methylthiazol-5-yl)-1,6-naphthyridin-7-yl)piperidine-4-carboxamide], the EC50 at DYRK1A kinase was 38 nM; on GSK3β kinase it was 401 nM; in assay [1], 877 nM; in assay [2], 504 nM; in assay [3] it was above 10000 nM; in assay [4], above 10000 nM. In addition, the EC50 in the assay with IL-6 turned out to be 7340 nM; in assay [5], 671 nM. Further, the inhibition at 10 µM is 40.4% in assay [3] and 42.9% in assay [4].

Turning to `O=C(Nc1cc2nc(-c3cccnc3)ccc2cn1)C1CC1` [Compound 764, N-(2-(Pyridin-3-yl)-1,6-naphthyridin-7-yl)cyclopropanecarboxamide], the EC50 at DYRK1A kinase is 8 nM; on GSK3β kinase it was 243 nM; in assay [1], 807 nM; in assay [2], 5100 nM; in assay [3], above 10000 nM; in assay [4], above 10000 nM. For the same molecule, the EC50 (in the assay on IL-6; in assay [5]) was above 10000 nM throughout. Further, the inhibition at 10 µM in assay [3] stood at 24.7%; in assay [4], 27.5%; in the assay with IL-6 it was 4.3%; in assay [5], 5.8%.

With `Cn1cc(-c2ccc3cnc(NC(=O)C4CC4)nc3c2)cn1` [Compound 909, N-(7-(1-Methyl-1H-pyrazol-4-yl)quinazolin-2-yl)cyclopropanecarboxamide], the EC50 at DYRK1A kinase was 13 nM; on GSK3β kinase, 25 nM; in assay [1], 372 nM; in assay [2], 1900 nM; in assay [3], above 10000 nM; in assay [4], above 10000 nM. Moreover, the values for the EC50 (in the assay with IL-6; in assay [5]) were 4860 nM and 1380 nM, respectively. In addition, the inhibition at 10 µM was 45.6% in assay [3] and 56.1% in assay [4].

Regarding `Cn1cc(-c2ccc3cnc(NC(=O)C4CCNCC4)nc3c2)cn1` [Compound 918, N-(7-(1-methyl-1H-pyrazol-4-yl)quinazolin-2-yl)piperidine-4-carboxamide], the EC50 on DYRK1A kinase was 62 nM; on GSK3β kinase it was 236 nM; in assay [1] it was above 10000 nM; in assay [2], above 10000 nM; in assay [3] it was above 10000 nM; in assay [4], above 10000 nM. The EC50 (in the assay with IL-6; in assay [5]) was above 10000 nM each time. For the same molecule, the inhibition at 10 µM in assay [3] was 10.2%; in assay [4] it was 5%; with IL-6, 14.6%; in assay [5], 31.2%.

`CC(C)CN1CCC(C(=O)Nc2ncc3ccc(-c4cnn(C)c4)cc3n2)CC1` [Compound 923, 1-isobutyl-N-(7-(1-methyl-1H-pyrazol-4-yl)quinazolin-2-yl)piperidine-4-carboxamide]: the EC50 on DYRK1A kinase is 44 nM; at GSK3β kinase, 204 nM; in assay [1], 1300 nM; in assay [2], 1070 nM; in assay [3] it was above 10000 nM; in assay [4] it was above 10000 nM. Further, the figures for the EC50 (with IL-6; in assay [5]) were above 10000 nM and 2720 nM, respectively. Moreover, the results for the inhibition at 10 µM (in assay [3]; in assay [4]; with IL-6) were 33.9%, 34.8% and 10.5%, respectively.
